Results: ChEMBL document CHEMBL5390237, “Discovery of Selective Histone Deacetylase 1 and 2 Inhibitors: Screening of a Focused Library Constructed by Click Chemistry, Kinetic Binding Analysis, and Biological Evaluation” (J Med Chem, 2023)

target: Histone deacetylase 2 (Homo sapiens, UniProt Q92769); assay: Inhibition of full-length recombinant human C-terminal GST tagged HDAC2 expressed in Sf9 insect cells using aminoluciferin peptide substrate at 100 nM preincubated for 3 hrs followed by substrate addition and measured after 30 mins by HDAC-Glo I/II chemiluminescence assay; conditions: time 3.5 hrs
Sequence (Q92769 whole entry): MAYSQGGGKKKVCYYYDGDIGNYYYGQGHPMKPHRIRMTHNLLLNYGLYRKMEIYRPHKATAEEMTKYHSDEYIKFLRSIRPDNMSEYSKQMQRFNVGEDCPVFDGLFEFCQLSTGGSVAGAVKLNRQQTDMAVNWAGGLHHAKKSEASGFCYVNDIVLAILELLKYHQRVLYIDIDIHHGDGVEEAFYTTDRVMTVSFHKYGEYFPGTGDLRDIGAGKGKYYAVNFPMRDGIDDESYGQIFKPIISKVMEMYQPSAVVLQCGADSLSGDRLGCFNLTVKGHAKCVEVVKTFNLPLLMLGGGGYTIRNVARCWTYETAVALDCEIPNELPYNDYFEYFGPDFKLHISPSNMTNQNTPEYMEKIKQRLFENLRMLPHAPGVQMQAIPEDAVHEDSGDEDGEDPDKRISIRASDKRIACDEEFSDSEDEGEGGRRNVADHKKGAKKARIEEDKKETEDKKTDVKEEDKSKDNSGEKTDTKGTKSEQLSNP

SMILES | inhibition [%]
Nc1ccc(-c2ccc(F)cc2)cc1NC(=O)CCc1cn(CCc2ccc(C(F)(F)F)cc2)nn1 | 1
Nc1ccc(-c2ccsc2)cc1NC(=O)CCc1cn(CCc2ccccc2[N+](=O)[O-])nn1 | 23
Cc1ccccc1CCn1cc(C(=O)Nc2cc(-c3ccc(F)cc3)ccc2N)nn1 | 0
Cc1ccc(-n2cc(-c3ccc(C(=O)Nc4cc(-c5cccs5)ccc4N)cc3)nn2)cc1C | 0
Nc1ccc(-c2ccsc2)cc1NC(=O)CCc1cn(/C=C/c2ccccc2)nn1 | 2
Nc1ccc(-c2ccsc2)cc1NC(=O)c1cn(Cc2cccc3ccccc23)nn1 | 4
Nc1ccc(-c2cccs2)cc1NC(=O)c1ccc(-c2cn(CCCCCCCC(=O)O)nn2)s1 | 14
Nc1ccc(-c2cccs2)cc1NC(=O)CCc1cn(C[S+]([O-])c2ccccc2)nn1 (stereo not given) | 17
COc1ccc(Cn2cc(CCC(=O)Nc3cc(-c4ccc(F)cc4)ccc3N)nn2)cc1 | 17
Nc1ccc(-c2cccs2)cc1NC(=O)c1ccc(-c2cn(CCc3cccc(C(F)(F)F)c3)nn2)s1 | 0
Nc1ccc(-c2ccsc2)cc1NC(=O)c1cn(CCc2c[nH]c3ccccc23)nn1 | 6
Nc1ccc(-c2ccsc2)cc1NC(=O)CCc1cn(CCc2cccc(Cl)c2)nn1 | 15
Nc1ccc(-c2ccc(F)cc2)cc1NC(=O)CCc1cn(Cc2cccc3ccccc23)nn1 | 14
Nc1ccc(-c2cccs2)cc1NC(=O)CCc1cn(CCC2CCCC2)nn1 | 0
Cc1ccccc1CCn1cc(-c2cccc(C(=O)Nc3cc(-c4cccs4)ccc3N)c2)nn1 | 0
Nc1ccc(-c2cccs2)cc1NC(=O)CCc1cn(Cc2ccc(C(=O)O)cc2)nn1 | 31
Nc1ccc(-c2ccc(F)cc2)cc1NC(=O)c1cn(Cc2cccc(-c3ccccc3)c2)nn1 | 0
Nc1ccc(-c2cccs2)cc1NC(=O)CCc1cn(CCc2cccc([N+](=O)[O-])c2)nn1 | 27
Nc1ccc(-c2cccs2)cc1NC(=O)c1ccc(-c2cn(CCCCCC(=O)O)nn2)s1 | 54
Nc1ccc(-c2cccnc2)cc1NC(=O)CCc1cn(CCCCCc2ccccc2)nn1 | 16
Cc1cccc(CCn2cc(C(=O)Nc3cc(-c4cccs4)ccc3N)nn2)c1 | 11
Nc1ccc(-c2ccccc2)cc1NC(=O)CCc1cn(CCCCCCC(=O)O)nn1 | 0
Nc1ccc(-c2cccs2)cc1NC(=O)c1ccc(-c2cn(CCCCCCCC(=O)O)nn2)cc1 | 0
Nc1ccc(-c2ccc(F)cc2)cc1NC(=O)CCc1cn(CCCCCc2ccccc2)nn1 | 5

SMILES | inhibition [%]
Nc1ccc(-c2ccccc2)cc1NC(=O)CCc1cn(CCc2cccc(Cl)c2)nn1 | 1
Nc1ccc(-c2cccs2)cc1NC(=O)c1cccc(-c2cn(CCc3ccccc3[N+](=O)[O-])nn2)c1 | 0
Nc1ccc(-c2ccc(F)cc2)cc1NC(=O)c1cn(CCc2ccc([N+](=O)[O-])cc2)nn1 | 12
Nc1ccc(-c2cccs2)cc1NC(=O)CCc1cn(CCCCCCC(=O)O)nn1 | 9
Nc1ccc(-c2ccsc2)cc1NC(=O)c1cn(CC2CCCCC2)nn1 | 0
Nc1ccc(-c2ccsc2)cc1NC(=O)c1cn(CCN2CCOCC2)nn1 | 0
Nc1ccc(-c2cccnc2)cc1NC(=O)CCc1cn(C[S+]([O-])c2ccccc2)nn1 (stereo not given) | 0
Cc1ccccc1CCn1cc(C(=O)Nc2cc(-c3ccsc3)ccc2N)nn1 | 0
Nc1ccc(-c2cccs2)cc1NC(=O)c1ccc(-c2cn(CCc3cccc(Cl)c3)nn2)cc1 | 22
Nc1ccc(-c2cccnc2)cc1NC(=O)CCc1cn(CCC23CC4CC(CC(C4)C2)C3)nn1 | 5
Nc1ccc(-c2ccsc2)cc1NC(=O)CCc1cn(CCN2CCc3ccccc3C2)nn1 | 18
Nc1ccc(-c2cccs2)cc1NC(=O)c1cn(CCC2CCCCC2)nn1 | 3
Cc1ccccc1CCn1cc(CCC(=O)Nc2cc(-c3cccnc3)ccc2N)nn1 | 0
Nc1ccc(-c2cccs2)cc1NC(=O)c1cn(-c2cccc3ccccc23)nn1 | 0
COc1ccc(-n2cc(C(=O)Nc3cc(-c4cccs4)ccc3N)nn2)cc1 | 6
Nc1ccc(-c2ccsc2)cc1NC(=O)CCc1cn(Cc2ccc(C(=O)O)cc2)nn1 | 31
Nc1ccc(-c2cccs2)cc1NC(=O)c1cn(-c2ccc(I)cc2)nn1 | 0
Nc1ccc(-c2cccs2)cc1NC(=O)c1ccc(-c2cn(CCC3CCCCC3)nn2)cc1 | 7
Cc1ccc(CCn2cc(CCC(=O)Nc3cc(-c4cccnc4)ccc3N)nn2)cc1 | 18
Cc1cccc(C)c1NC(=O)Cn1cc(CCC(=O)Nc2cc(-c3cccnc3)ccc2N)nn1 | 11
Nc1ccc(-c2ccc(F)cc2)cc1NC(=O)CCc1cn(CCCc2ccccc2)nn1 | 12
Nc1ccc(-c2cccnc2)cc1NC(=O)CCc1cn(-c2ccccc2-c2ccccc2)nn1 | 9
Nc1ccc(-c2ccc(F)cc2)cc1NC(=O)CCc1cn(Cc2ccc(OC(F)(F)F)cc2)nn1 | 0
Nc1ccc(-c2ccccc2)cc1NC(=O)c1cn(CCN2CCc3ccccc3C2)nn1 | 0

SMILES | inhibition [%]
Nc1ccc(-c2cccs2)cc1NC(=O)CCc1cn(CCc2ccccc2C(F)(F)F)nn1 | 0
Nc1ccc(-c2ccsc2)cc1NC(=O)CCc1cn(CCc2ccc3ccccc3n2)nn1 | 20
Cc1csc(CCn2cc(-c3ccc(C(=O)Nc4cc(-c5cccs5)ccc4N)cc3)nn2)n1 | 68
Nc1ccc(-c2ccccc2)cc1NC(=O)c1cn(-c2ccc(I)cc2)nn1 | 0
Nc1ccc(-c2cccs2)cc1NC(=O)c1ccc(-c2cn(-c3ccccc3-c3ccccc3)nn2)cc1 | 0
Nc1ccc(-c2ccsc2)cc1NC(=O)CCc1cn(Cc2nc3ccccc3[nH]2)nn1 | 25
Nc1ccc(-c2cccnc2)cc1NC(=O)CCc1cn(Cc2cccc(C(=O)O)c2)nn1 | 0
Nc1ccc(-c2ccsc2)cc1NC(=O)c1cn(-c2ccc(O)cc2)nn1 | 2
Nc1ccc(-c2ccccc2)cc1NC(=O)c1cn(-c2ccc(O)cc2)nn1 | 0
Nc1ccc(-c2ccc(F)cc2)cc1NC(=O)c1cn(CC2CCCCC2)nn1 | 3
Cc1cccc(CCn2cc(CCC(=O)Nc3cc(-c4cccnc4)ccc3N)nn2)c1 | 30
Nc1ccc(-c2cccnc2)cc1NC(=O)CCc1cn(CCc2ccccc2)nn1 | 23
Nc1ccc(-c2cccnc2)cc1NC(=O)CCc1cn(CC(=O)c2ccccc2)nn1 | 3
Cc1ccccc1CCn1cc(CCC(=O)Nc2cc(-c3ccc(F)cc3)ccc2N)nn1 | 7
Nc1ccc(-c2ccc(F)cc2)cc1NC(=O)CCc1cn(CC(=O)Nc2ccc(F)cc2)nn1 | 16
Nc1ccc(-c2ccsc2)cc1NC(=O)CCc1cn(-c2ccc(Br)cc2)nn1 | 3
Nc1ccc(-c2ccccc2)cc1NC(=O)CCc1cn(CCc2cccc(F)c2)nn1 | 1
Nc1ccc(-c2cccs2)cc1NC(=O)c1cccc(-c2cn(CCCCCC(=O)O)nn2)c1 | 41
Nc1ccc(-c2cccs2)cc1NC(=O)c1cccc(-c2cn(CCc3ccc([N+](=O)[O-])cc3)nn2)c1 | 1
Nc1ccc(-c2ccsc2)cc1NC(=O)CCc1cn(CCC2CCCC2)nn1 | 0
COc1ccc(-n2cc(CCC(=O)Nc3cc(-c4cccnc4)ccc3N)nn2)cc1 | 9
Nc1ccc(-c2ccsc2)cc1NC(=O)CCc1cn(CCC23CC4CC(CC(C4)C2)C3)nn1 | 0
CCc1ccc(Cn2cc(-c3ccc(C(=O)Nc4cc(-c5cccs5)ccc4N)s3)nn2)cc1 | 2
Nc1ccc(-c2cccs2)cc1NC(=O)c1cn(CCc2cccc(C(F)(F)F)c2)nn1 | 0

SMILES | inhibition [%]
Nc1ccc(-c2cccs2)cc1NC(=O)c1ccc(-c2cn(-c3ccc(I)cc3)nn2)cc1 | 0
Nc1ccc(-c2ccsc2)cc1NC(=O)c1cn(Cc2ccc3ccccc3n2)nn1 | 19
Cc1csc(CCn2cc(C(=O)Nc3cc(-c4ccsc4)ccc3N)nn2)n1 | 12
COc1ccc(Cn2cc(C(=O)Nc3cc(-c4cccs4)ccc3N)nn2)cc1 | 17
Nc1ccc(-c2cccs2)cc1NC(=O)c1cccc(-c2cn(Cc3ccc(OC(F)(F)F)cc3)nn2)c1 | 0
Nc1ccc(-c2cccs2)cc1NC(=O)CCc1cn(CCc2ccsc2)nn1 | 13
COc1ccc(CCn2cc(C(=O)Nc3cc(-c4ccc(F)cc4)ccc3N)nn2)cc1 | 16
Nc1ccc(-c2ccccc2)cc1NC(=O)CCc1cn(Cc2ccc(-c3ccccc3)cc2)nn1 | 0
Nc1ccc(-c2cccnc2)cc1NC(=O)CCc1cn(CCc2cccc(C(F)(F)F)c2)nn1 | 13
Nc1ccc(-c2ccc(F)cc2)cc1NC(=O)c1cn(-c2ccc(O)cc2)nn1 | 15
COc1ccc(Cn2cc(CCC(=O)Nc3cc(-c4ccccc4)ccc3N)nn2)cc1 | 6
Nc1ccc(-c2ccsc2)cc1NC(=O)c1cn(-c2ccc(Br)cc2)nn1 | 0
Nc1ccc(-c2ccc(F)cc2)cc1NC(=O)CCc1cn(-c2ccc(Br)cc2)nn1 | 0
Nc1ccc(-c2cccs2)cc1NC(=O)c1ccc(-c2cn(CCc3cccc4ccccc34)nn2)s1 | 0
Nc1ccc(-c2cccs2)cc1NC(=O)CCc1cn(CCc2ccccc2[N+](=O)[O-])nn1 | 24
Nc1ccc(-c2cccs2)cc1NC(=O)c1cn(CC23CC4CC(CC(C4)C2)C3)nn1 | 0
Nc1ccc(-c2ccc(F)cc2)cc1NC(=O)c1cn(Cc2ccc(OC(F)(F)F)cc2)nn1 | 0
Nc1ccc(-c2cccs2)cc1NC(=O)c1cccc(-c2cn(Cc3cccc(-c4ccccc4)c3)nn2)c1 | 0
Nc1ccc(-c2ccc(F)cc2)cc1NC(=O)c1cn(CCc2ccc(C(F)(F)F)cc2)nn1 | 0
Nc1ccc(-c2cccnc2)cc1NC(=O)CCc1cn(Cc2cccc3ccccc23)nn1 | 12
Nc1ccc(-c2ccc(F)cc2)cc1NC(=O)CCc1cn(CCc2ccccc2)nn1 | 37
Nc1ccc(-c2cccs2)cc1NC(=O)c1ccc(-c2cn(CCC3CCCC3)nn2)s1 | 0
Nc1ccc(-c2ccccc2)cc1NC(=O)c1cn(CCc2ccc([N+](=O)[O-])cc2)nn1 | 0
